Experimental data reported in US9211305B2, “Pharmaceutical compositions with glycosaminoglycans and use thereof in the treatment of chronic ulcers” (LABORATORIOS FARMACEUTICOS ROVI S.A., priority 2008, dated 2015).
Several values for one entry are separate records, joined by “and”; a condition that tells them apart may be missing. Equal entries are not always repeated.

What was measured:
diabetic wistar rat = test: Example 1: ulcer area reduction in streptozocin-diabetized rats, subcutaneous route; assay type: in vivo
Description: To perform the present example, doses of 45 mg/kg of streptozocin (STZ) were administered by intramuscular route to make a batch of 8 rats diabetic (Andrades Ja et al. Engineering, expression, and renaturation of a collagen-targeted human bFGF fusion protein. Growth Factors. 2001; 18(4):261-75).
Male wistar rats with an average weight of 250 g per rat were used, to which a dose of 11.25 mg STZ per rat was administered by means of the intramuscular administration of 100 μL in the left paw of each rat.
Sweetened water (350 mg/dL) was administered to all the rats for three days and glucose measurements were performed with a glucometer every day to verify that the rats were indeed diabetized. For this reason, before the administration and at time 4 days after the administration of streptozocin, a drop of blood was extracted from the rat tail vein for the subsequent quantification of glycemia and to see whether they were diabetic before starting the ulceration assay.
Once the rats were diabetized, 4 ulcers with a diameter of 1 cm each were made on them using a scalpel. An anesthesia/analgesia protocol with Ketamine/xylazine was followed according to the recommendations of the book: “Handbook of laboratory animal management and welfare”:
The ulcers were treated with water and cleaned for 9 days after the ulceration.
The administrations of bemiparin were performed by means of a bemiparin solution by subcutaneous route (100 μL) for the treatment of the ulcers.
The diameter of the ulcer was quantified by means of tracing the ulcer onto a transparency to see the progress of the healing.

factor Xa = test: Anti-factor Xa activity; assay type: biochemical
Non-Diabetized Rats = test: Wound healing by oral route in non-diabetized rats; assay type: in vivo, Wistar rat; conditions: for histopathological Grade / histopathological Score: sacrifice day 15, fondaparinux 10 mg/kg, bemiparin 100 mg/kg
Description: Both treatments were administered by oral route at an administration volume of 10 mL/kg. In the case of fondaparinux, a dose of 10 mg/kg was administered and in the case of bemiparin, 100 mg/kg were administered.
The control group only received the carrier used to prepare the assay product. The carrier for the preparation of the assay product is a 1.5% (w/v) bicarbonate solution in water for injections. It was verified that the pH of the formulations prepared was above 8.00.
The animals were anesthetized (ketamine+xylazine, 90+10 mg/kg, i.m.). Their back was shaved and cleaned with disinfectant (povidone-iodine) and the area where the wound would be made was marked by means of a template to homogenize its position in all the animals.
The wound was made by means of a circular incision with a diameter of approximately 1.5 cm, the skin of the mid-dorsal area being removed. 1 mL/animal of physiological serum was administered by i.p. route after the intervention. […]. Analgesia (paracetamol, 1 mg/mL) was provided in drinking water for the 7 days after the intervention.
On the day after making the wound and for a total of 14 days, the assigned treatments were administered to the animals. The follow-up of the animals was performed, the evolution of the wounds being macroscopically assessed twice a week, by means of digital photography of the wound. The body weight of the animals was also recorded twice a week.
On the day after the last administration, the animals were sacrificed with anesthesia overdose (pentobarbital sodium). The area where the wound was made was extracted. The front half was frozen in liquid nitrogen and stored in a freezer (−80±5° C.) and the rear half was stored in formol for its subsequent histological processing.
(§1) The wound area was calculated as the percentage of reduction thereof to evaluate the degree of curing thereof, by means of the standardized formula: […]
On the following day and for a total of 14 days, 10 mg/kg were administered to the animals by oral route.
The follow-up of the animals was performed, the evolution of the wounds being macroscopically assessed twice a week, by means of digital photography of the wound. The body weight of the animals was also recorded twice a week.
The animals were sacrificed on day 15 of the study and the area of the skin where the wound was caused was stored in formol to perform a histopathological evaluation (hematoxylin-eosin staining).
Each section was given a histological score was given in the grade I to grade V range, where I means uncured wound and V means completely epithelialized wound. The score is based on the degree of cell invasion, the formation of granulation tissue, vascularization and epithelialization.

non-diabetic rats = test: Example 3: percentage of ulcer healing in non-diabetic rats, SC route; assay type: in vivo, Wistar rat; conditions: for percentage of healing of day 9 with respect to day 1, Average: Group 1, non-diabetic, 217 IU/rat SC
Description: Diabetes was induced in 6 of all the rats and 4 of them were left as a non-diabetic control, to test the result of the healing of chronic ulcers not caused by diabetes.
Once the rats are ready, 2 ulcers with a diameter of 1 cm each were made on them using a scalpel. An anesthesia/analgesia protocol with ketamine/xylazine was followed according to the recommendations of the book: “Handbook of laboratory animal management and welfare”:
The ulcers were treated with water and cleaned for 9 days after the ulceration. A corresponding solution was administered to each group by SC route (100 μL) for the treatment of the ulcers. The diameter of the ulcer was quantified by means of tracing the ulcer onto a transparency to see the progress of the healing.

[1] = in vivo; cited from earlier work
[2] = tested on: C57BL/KsJ-db/db diabetic mouse; test: Example 4: wound healing in genetically diabetic mouse, subcutaneous route; assay type: in vivo; conditions: for histopathological Grade / histopathological Score: sacrifice day 21, doses as in the 18th table
Description: The genetically diabetic mouse develops resistance to insulin and hyperglycemia similar to those observed in adult diabetes. The total thickness wounds made in the back of these animals takes longer in forming the granulation tissue and in closing than the same wounds caused in non-diabetic animals.
On the first day of the assay, the animals were anesthetized (ketamine+xylazine, 100+10 mg/kg, i.m.). The back of the animal was shaved, the area was cleaned with disinfectant and the location of the wound was marked by means of a template to make its position the same in all the animals.
The wound was made by means of a circular incision with a diameter of approximately 1.5 cm, the skin of the mid-dorsal area being removed. A semipermeable dressing was subsequently placed on the wound. 1 mL/animal of physiological serum was administered by i.p. route after the intervention.
as §1
The measurement performed immediately after the intervention or incision was used as the baseline area. On the following day and for a total of 14 days, the assigned treatments were administered to the animals.
On the following day and for a total of 14 days, 10 mL/kg were administered to the animals by subcutaneous route in the back of the animal, avoiding the area of the wound.
The follow-up of the animals was performed up to a period of 21 days (average time necessary for the healing of the wounds in this animal model). The assessment was performed by means of digital photography of the wound and subsequent image analysis.
The animals were sacrificed on day 21 of the study and the area of the skin where the wound was caused was stored in formol to perform a histopathological evaluation (hematoxylin-eosin staining).
Each section was given a histological score in the grade 1 to grade V range, where I means uncured wound and V means completely epithelialized wound. The score is based on the degree of cell invasion, the formation of granulation tissue, vascularization and epithelialization.

[3] = day 21, subcutaneous 14 days, fondaparinux 1 mg/kg, bemiparin 1000 IU Xa/kg

**Q.** Which “percentage of area reduction of day 9 with respect to day 1, Average” value (diabetic wistar rat; 108 IU rat, subcutaneous, ulcer E excluded) does the source give for Bemiparin here?
**A.** 24.39 ± 7.47%

**Q.** And the macroscopic healing process (diabetic wistar rat; 217 IU rat compared with 108 IU rat)?
**A.** macroscopically much better

**Q.** And the “percentage of area reduction of day 9 with respect to day 1, Average” value (diabetic wistar rat; 217 IU rat, subcutaneous)?
**A.** 27.35 ± 7.25%

**Q.** And the “percentage of area reduction of day 9 with respect to day 1” value (diabetic wistar rat; single ulcers, 217 IU rat, subcutaneous)?
**A.** 26.2% and 20.14% and 25.64% and 37.43%

**Q.** And the anti-Xa/anti-IIa ratio (factor Xa)?
**A.** greater than 8

**Q.** What about the “reduction of the ulceration area” value (Non-Diabetized Rats; oral 100 mg/kg, 14 days) of the same compound?
**A.** more or less to the same extent as the control animals

**Q.** What about the “histopathological Grade” value (Non-Diabetized Rats; oral, 14 days) of the same compound?
**A.** III (7-9 Moderately thick granulation tissue. It can vary from being dominated by inflammatory cells to greater presence of fibroblasts and collagen deposition, extensive neovascularization, minimum to moderate epithelial migration.)

**Q.** What about the “histopathological Score” value (Non-Diabetized Rats; oral, 14 days) of the same compound?
**A.** 9.0

**Q.** And the scab formation (Non-Diabetized Rats; oral, compared with fondaparinux)?
**A.** much more pronounced scab process

**Q.** And the macroscopic healing process (non-diabetic rats; Group 1 (217 IU/rat) compared with the rest of groups)?
**A.** macroscopically much better

**Q.** What about the “percentage of healing of day 9 with respect to day 1, Average” value (non-diabetic rats) of the same compound?
**A.** 71.82%

**Q.** What about the “percentage of healing of day 9 with respect to day 1, Average” value (non-diabetic rats; listed as bemiparin) of the same compound?
**A.** 71.82%

**Q.** What about the “Plasma Half-Life” value [1] of the same compound?
**A.** 5.3 h

**Q.** What about the “Plasma Half-Life Range” value [1] of the same compound?
**A.** 5.2 to 5.4 h

**Q.** What about the “percentage of healing of the wound” value [2, 3] of the same compound?
**A.** complete curing

**Q.** And the “percentage of healing of the wound” value ([2]; from day 18, subcutaneous 1000 IU Xa/kg)?
**A.** 98%

**Q.** What about the “day on which the wound closes” value ([2]; subcutaneous 1000 IU Xa/kg) of the same compound?
**A.** 18 days

**Q.** And the “histopathological Grade” value ([2]; subcutaneous 14 days)?
**A.** IV (10-12 Thick and vascular granulation tissue dominated by fibroblasts and extensive collagen deposition, the epithelium covers the wound partially or completely.)

**Q.** And the “histopathological Score” value ([2]; subcutaneous 14 days)?
**A.** 11.5

**Q.** What about the “granulation tissue in the wound, macroscopic” value ([2]; subcutaneous, after the fifth day of treatment) of the same compound?
**A.** a bed covered with granulation tissue

**Q.** Which “histopathological Grade” value (Non-Diabetized Rats; oral, 14 days) does the source give for `CO[C@H]1O[C@H](COS(=O)(=O)O)[C@@H](O[C@@H]2O[C@@H](C(=O)O)[C@@H](O[C@H]3O[C@H](COS(=O)(=O)O)[C@@H](O[C@@H]4O[C@H](C(=O)O)[C@@H](O[C@H]5O[C@H](COS(=O)(=O)O)[C@@H](O)[C@H](O)[C@H]5NS(=O)(=O)O)[C@H](O)[C@H]4O)[C@H](OS(=O)(=O)O)[C@H]3NS(=O)(=O)O)[C@H](O)[C@H]2OS(=O)(=O)O)[C@H](O)[C@H]1NS(=O)(=O)O` [Fondaparinux] here?
**A.** III (7-9 Moderately thick granulation tissue. It can vary from being dominated by inflammatory cells to greater presence of fibroblasts and collagen deposition, extensive neovascularization, minimum to moderate epithelial migration.)

**Q.** What about the “histopathological Score” value (Non-Diabetized Rats; oral, 14 days) of the same compound?
**A.** 9.5

**Q.** And the “percentage of healing of the wound” value [2, 3]?
**A.** 96%

**Q.** And the “histopathological Grade” value ([2]; subcutaneous 14 days)?
**A.** III (7-9 Moderately thick granulation tissue. It can vary from being dominated by inflammatory cells to greater presence of fibroblasts and collagen deposition, extensive neovascularization, minimum to moderate epithelial migration.)

**Q.** And the “histopathological Score” value ([2]; subcutaneous 14 days)?
**A.** 7.2
